In patent US6552080B1, “Fungicidal compounds having a fluorovinyl-or fluoropropenyl-oxyphenyloxime moiety and process for the preparation thereof” (Korea Research Institute of Chemical Technology, priority 1999, dated 2003):
Where two headings read alike, the source gives them in different places.

Key:
Erysiphae graminis = assay: Fungicidal activity against Barley Powdery Mildew (BPM) disease; assay type: in vivo; details: Barley Powdery Mildew
[1] = system: Pyricularia oryzae Carvara KA301; assay type: in vivo; details: Rice Blast
Botrytis cinerae = assay: Fungicidal activity against Cucumber Gray Mold Rot (CGM) disease; assay type: in vivo; details: Cucumber Gray Mold Rot; concentration 50 ppm
Procedure: Botrytis cinerae, which was isolated from cucumber infected thereby, was inoculated on a PDA agar medium and cultured under a 12L/12D cycle at 25° C. for 15 days to form spore. The spores were scraped, filtered through a gauze and then suspended in potato dextrose liquid medium at a concentration of 1×10^6 spore/ml. The spore suspension was sprayed on a cucumber plant having one leaf. The cucumber plant was held in a humidified room at 20° C. for 3 days. L.A. on a leaf was measured to calculate an C.V.

Rhizoctonia solani AG-1 = assay: Fungicidal activity against Rice Sheath Blight (RSB) disease; details: Rice Sheath Blight
Procedure: To examine fungicidal activity of the compounds of the present invention, each of the compounds listed in Table 3 and 4 was dissolved in 10% acetone to a concentration of 250 ppm, and Tween-20 was added thereto to a concentration of 250 or 500 ppm. 50 ml of the resulting solution was sprayed on leaves of a host plant. The plant was kept at room temperature for 24 hours to let the solvent evaporate, and then, a pathogenic fungus was inoculated thereonto. The plant was held in a humidity chamber for 24 hours, transferred to an plant growth room kept at 20 to 27° C. and a relative humidity of 60 to 80% and kept to induce disease. […] This procedure was repeated twice for each test. 10% Acetone solution containing 250 ppm of Tween-20 was used as a control.
The fungicidal activity of the compound of the present invention is repressed by a control value (C.V.) calculated as; [formula]
Rhizoctonia solani AG-1 was cultured on a PDA medium (potato 200 g, dextrose 20 g, agar 20 g and distilled water 1 ? for 3 days and the agar disc(diameter 0.6 cm) was inoculated and cultured on sterilized wheat bran medium in a 1 L bottle at 26 to 28° C. for 7 days. A mycelial mass was ground using a homogenizer, inoculated uniformly on soil of a pot wherein a Nakdong rice plant having 2 or 3 leaves and an height of 5 cm grew, and kept in humidity polyvinyl chamber for 5 days to induce RSB. L.A. on a leaf sheath was measured to calculate an C.V.

Puccinia recondita = assay: Fungicidal activity against Wheat Leaf Rust (WLR) disease; assay type: in vivo; details: Wheat Leaf Rust
Phytophthora infestans = assay type: in vivo; details: Tomato Late Blight; concentration 50 ppm

Row | SMILES | BPM (Fungicidal Activities, C.V.) (Erysiphae graminis; concentration 10 ppm) | BPM (Fungicidal Activities, C.V.) (Erysiphae graminis; concentration 50 ppm) | RCV (Fungicidal Activities, C.V.) ([1]; concentration 10 ppm) | RCV (Fungicidal Activities, C.V.) ([1]; concentration 50 ppm) | CGM (Fungicidal Activities, C.V.) (Botrytis cinerae) | RSB (Fungicidal Activities, C.V.) (Rhizoctonia solani AG-1; concentration 10 ppm) | RSB (Fungicidal Activities, C.V.) (Rhizoctonia solani AG-1; concentration 50 ppm) | WLR (Fungicidal Activities, C.V.) (Puccinia recondita; concentration 10 ppm) | WLR (Fungicidal Activities, C.V.) (Puccinia recondita; concentration 50 ppm) | TLB (Fungicidal Activities, C.V.) (Phytophthora infestans) | BPM (Fungicidal Activities, C.V.) (Erysiphae graminis; concentration 2 ppm) | RCV (Fungicidal Activities, C.V.) ([1]; concentration 2 ppm) | RSB (Fungicidal Activities, C.V.) (Rhizoctonia solani AG-1; concentration 2 ppm) | WLR (Fungicidal Activities, C.V.) (Puccinia recondita; concentration 2 ppm)
1 | COC=C(C(=O)OC)c1ccccc1CON=C(C)c1cccc(OC(F)=Cc2ccc(F)cc2)c1 [Compound 51] | 100% | 100% | 99% | 100% | 52% | 88% | 90% | 100% | 100% | 97% | – | – | – | –
2 | COC=C(C(=O)OC)c1ccccc1CON=C(C)c1cccc(OC(F)=Cc2ccc(Cl)c(C)c2)c1 [Compound 52] | 100% | 100% | 80% | 97% | 52% | – | 65% | 96% | 100% | 42% | – | – | – | –
3 | COC=C(C(=O)OC)c1ccccc1CON=C(C)c1cccc(OC(F)=Cc2ccc(Cl)cc2)c1 [Compound 54] | 100% | 100% | 99% | 100% | 51% | 80% | 90% | 100% | 100% | 84% | 99% | 97% | 50% | 97%
4 | COC=C(C(=O)OC)c1ccccc1CON=C(C)c1cccc(OC(F)=Cc2ccc3ccccc3c2)c1 [Compound 56] | 100% | 100% | 80% | 95% | 5% | – | 70% | 100% | 100% | 57% | 100% | 25% | – | 95%
5 | CNC(=O)C(=COC)c1ccccc1CON=C(C)c1cccc(OC(F)=Cc2ccc(C)cc2)c1 [Compound 57] | – | 98% | – | 99% | 8% | – | 47% | – | 98% | 0% | 0% | 95% | – | 27%
6 | CNC(=O)C(=COC)c1ccccc1CON=C(C)c1cccc(OC(F)=Cc2cc(C)cc(C)c2)c1 [Compound 58] | – | 98% | – | 100% | 8% | – | 23% | – | 98% | 0% | – | – | – | –
7 | CCc1ccc(C=C(F)Oc2cccc(C(C)=NOCc3ccccc3C(=COC)C(=O)NC)c2)cc1 [Compound 59] | – | 91% | – | 100% | 0% | – | 47% | – | 73% | 0% | – | – | – | –
8 | CNC(=O)C(=COC)c1ccccc1CON=C(C)c1cccc(OC(F)=Cc2ccc(OC)cc2)c1 [Compound 60] | – | 100% | – | 100% | 8% | – | 29% | – | 66% | 0% | – | – | – | –
9 | CNC(=O)C(=COC)c1ccccc1CON=C(C)c1cccc(OC(F)=Cc2ccc(Cl)c(C)c2)c1 [Compound 61] | – | 86% | – | 91% | 33% | – | 23% | – | 43% | 0% | – | – | – | –
